Data from ChEMBL document CHEMBL4739717, “Methods of treating cartilage disorders through inhibition of clk and dyrk” (2020).
Active and inactive are the calls of the source. No cut-off for these calls is given here.

Tests used:
[1] = Effect on Wnt signaling pathway in human SW480 cells harbouring TCF/LEF luciferase reporter gene and SP5-Luc reporter gene incubated for 36 to 48 hrs by luminescence assay; assay type: cell-based
[2] = biological target: Dual specificity protein kinase CLK2 (Homo sapiens, UniProt P49760); assay: Inhibition of recombinant CLK2 (unknown origin) using Ser/Thr 6 peptide as substrate incubated for 1 hr in presence of ATP by FRET assay
[3] = biological target: Dual specificity tyrosine-phosphorylation-regulated kinase 1A (Homo sapiens, UniProt Q13627); assay: Inhibition of recombinant DYRK1A (unknown origin) using Ser/Thr 18 peptide as substrate incubated for 1 hr in presence of ATP by FRET assay
[4] = Induction of chondrogenesis in human MSC assessed as maximum activity at 300 nM incubated for 6 days by rhodamine B and Nile red staining based imaging analysis relative to control; assay type: functional; settings: BMMSC, 144 h, time 6 day
[5] = biological target: Dual specificity protein kinase CLK3 (Homo sapiens, UniProt P49761); assay: Inhibition of recombinant CLK3 (unknown origin) using Ser/Thr 18 peptide as substrate incubated for 1 hr in presence of ATP by FRET assay
[6] = Inhibition of IL1-beta induced MMP3 expression levels in human chondrocytes assessed as MMP3 levels incubated for 2hrs followed by IL1-beta stimulation and measured after overnight incubation by LANCE assay; assay type: functional, cell-based; settings: Chondrocyte
[7] = Inhibition of IL1-beta induced MMP3 expression levels in human chondrocytes assessed as MMP3 levels incubated for 2hrs followed by IL1-beta stimulation and measured after overnight incubation by LANCE assay relative to control; assay type: functional, Chondrocyte
[8] = Induction of chondrogenesis in human MSC assessed as incubated for 6 days by rhodamine B and Nile red staining based imaging analysis; assay type: functional; settings: bmmsc
[9] = Induction of chondrogenesis in human MSC assessed as maximum activity at 30 nM incubated for 6 days by rhodamine B and Nile red staining based imaging analysis relative to control; assay type: functional; settings: BMMSC, 144 h, time 6 day
[10] = Induction of chondrogenesis in human MSC assessed as maximum activity at 2700 nM incubated for 6 days by rhodamine B and Nile red staining based imaging analysis relative to control; assay type: functional; settings: BMMSC, 144 h, time 6 day
[11] = Induction of chondrogenesis in human MSC assessed as maximum activity at 100 nM incubated for 6 days by rhodamine B and Nile red staining based imaging analysis relative to control; assay type: functional; settings: BMMSC, 144 h, time 6 day
Chondrocyte = assay: Inhibition of IL1-beta induced MMP3 expression levels in human chondrocytes assessed as MMP3 levels incubated for 2hrs followed by IL1-beta stimulation and measured after 24 hrs by qRT-PCR analysis; assay type: functional; settings: time 26.0 hrs
[12] = Induction of chondrogenesis in human MSC assessed as maximum activity at 10 nM incubated for 6 days by rhodamine B and Nile red staining based imaging analysis relative to control; assay type: functional; settings: BMMSC, 144 h, time 6 day

Dual specificity protein kinase CLK2, sequence (P49760 whole entry): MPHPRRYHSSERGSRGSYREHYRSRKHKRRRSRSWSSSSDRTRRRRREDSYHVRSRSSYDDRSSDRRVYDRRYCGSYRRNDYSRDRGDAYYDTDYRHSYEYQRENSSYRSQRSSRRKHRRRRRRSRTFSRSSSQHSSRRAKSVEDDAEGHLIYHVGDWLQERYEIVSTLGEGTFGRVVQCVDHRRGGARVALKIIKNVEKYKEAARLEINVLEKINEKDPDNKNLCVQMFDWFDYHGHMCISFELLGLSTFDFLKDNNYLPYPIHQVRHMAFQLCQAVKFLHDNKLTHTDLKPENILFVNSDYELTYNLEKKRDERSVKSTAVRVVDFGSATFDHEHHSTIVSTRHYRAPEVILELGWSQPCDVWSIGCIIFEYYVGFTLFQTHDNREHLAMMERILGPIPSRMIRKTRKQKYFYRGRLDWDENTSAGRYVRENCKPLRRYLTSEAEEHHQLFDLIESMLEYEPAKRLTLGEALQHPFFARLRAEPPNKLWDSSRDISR
Dual specificity protein kinase CLK3, sequence (P49761 whole entry): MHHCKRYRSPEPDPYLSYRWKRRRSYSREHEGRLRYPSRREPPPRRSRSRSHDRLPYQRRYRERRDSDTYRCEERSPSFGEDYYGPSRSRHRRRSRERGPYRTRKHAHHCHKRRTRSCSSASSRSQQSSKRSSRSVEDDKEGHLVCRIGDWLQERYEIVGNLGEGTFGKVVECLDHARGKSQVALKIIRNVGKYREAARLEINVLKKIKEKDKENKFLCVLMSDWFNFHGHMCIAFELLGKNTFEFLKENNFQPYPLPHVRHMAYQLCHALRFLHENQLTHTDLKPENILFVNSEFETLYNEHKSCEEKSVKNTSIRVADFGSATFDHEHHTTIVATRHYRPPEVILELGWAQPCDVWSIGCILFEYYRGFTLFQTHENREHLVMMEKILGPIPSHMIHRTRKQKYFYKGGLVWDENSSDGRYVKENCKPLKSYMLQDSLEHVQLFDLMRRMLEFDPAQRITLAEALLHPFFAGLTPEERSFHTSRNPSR

EC50 [1] [µM] | EC50 [2] [µM] | EC50 [3] [µM] | EC50 [5] [µM] | EC50 [6] [µM] | EC50 [8] [µM] | SMILES | Emax at 0.3 µM [4] [%] | Imax [7] [%] | Emax at 0.03 µM [9] [%] | Emax at 2.7 µM [10] [%] | Emax at 0.1 µM [11] [%] | Activity (Chondrocyte) | Emax at 0.01 µM [12] [%]
> 10 | 0.009 | 0.011 | 1.9 | – | – | CN1CCN(c2nccc3[nH]c(-c4n[nH]c5ncc(-c6cncc(CN7CCCCC7)c6)cc45)cc23)CC1 | 50.7 | – | – | – | – | – | –
3.38 | – | > 10 | > 10 | 0.0067 | – | O=C(Nc1cncc(-c2ccc3[nH]nc(-c4nc5c(-c6cccs6)cccc5[nH]4)c3n2)c1)C1CC1 | – | 72 | – | – | – | – | –
0.386 | 0.006 | 0.045 | 0.049 | – | 0.01 | CN(C)CCNc1cc(F)cc(-c2cccc3[nH]c(-c4n[nH]c5cnc(-c6cncc(NC(=O)C(C)(C)C)c6)cc45)cc23)c1 | – | – | 87.3 | – | – | – | –
1.39 | 0.01 | 0.004 | 6.15 | 0.0016 | – | O=C(N[C@H]1C[C@@H]1c1ccccc1)c1n[nH]c2ccc(-c3cccnc3)cc12 | – | – | – | – | – | – | –
0.227 | 0.003 | 0.002 | 0.313 | – | 0.3 | Cc1n[nH]c2ccc(-c3cncc(O[C@H]4CCNCC4(F)F)n3)cc12 | 82.1 | – | – | – | – | – | –
3.57 | – | 0.009 | > 10 | 3 | – | COc1cncc(C#Cc2c[nH]nc2C(=O)Nc2ccc(OC3CCN(C)CC3)nc2)c1 | – | 3.4 | – | – | – | – | –
> 10 | > 10 | 0.04 | > 10 | 0.0358 | – | O=C(Nc1cc2cc(-c3cnco3)cnc2cn1)C1CCNCC1 | – | – | – | – | – | – | –
0.344 | 0.001 | 0.003 | 0.182 | 0.0208 | – | NC1CN(c2cncc(-c3ccc4[nH]nc(-c5nc6ccncc6[nH]5)c4c3)n2)C1 | – | 61.5 | – | – | – | – | –
0.0028 | – | – | – | – | 2.7 | C[C@@H]1CN(c2ccc(NC(=O)c3n[nH]c4ccc(-c5cncc(CN6CCCCC6)c5)cc34)cn2)C[C@H](C)O1 | – | – | – | 129 | – | – | –
0.012 | – | 0.012 | – | 0.111 | 0.1 | CC(C)CC(=O)Nc1cncc(-c2ccc3[nH]nc(-c4nc5c(-c6cccnc6)cncc5[nH]4)c3c2)c1 | – | 100 | – | – | 198 | – | –
– | – | – | – | 3 | – | CN1CCC(Oc2ccc(C(=O)Nc3cc4cc(-c5cnn(C)c5)ccc4cn3)cc2)CC1 | – | – | – | – | – | inactive | 25.4
– | 0.003 | – | – | 0.304 | – | CN1CCN(c2ccc(C(=O)N3CCN(c4cc(C(=O)Nc5cc6cc(-c7cnn(C)c7)ccc6cn5)ccn4)CC3)cn2)CC1 | – | – | – | – | – | – | –
1.66 | – | 0.009 | – | 3 | 0.3 | CC(C)Nc1cncc(-c2ccc3[nH]nc(-c4nc5c(-c6cc(F)cc(NCCN(C)C)c6)cncc5[nH]4)c3n2)c1 | – | – | – | 96.8 | – | – | –
– | 0.01 | – | 0.078 | 1.05 | – | CN1CCN(c2cc(CC(=O)Nc3cc4cc(-c5cnn(C)c5)ccc4cn3)ccn2)CC1 | – | 100 | – | – | – | – | –
– | 0.003 | – | 0.049 | 3 | – | Cn1cc(-c2ccc3cnc(NC(=O)c4ccc5c(cnn5C)c4)cc3c2)cn1 | – | 46.9 | – | – | – | – | –
0.006 | 0.005 | 0.012 | 0.048 | – | 0.1 | Fc1cccc(-c2cncc3[nH]c(-c4n[nH]c5ncc(-c6cccnc6)cc45)nc23)c1 | 157 | – | – | – | – | – | –
0.256 | 0.001 | 0.009 | 1.42 | 1.05 | – | Cc1n[nH]c2ccc(-c3cncc(NC4CCNCC4)n3)cc12 | – | – | – | – | – | – | –
0.988 | – | 0.004 | – | 0.0037 | 0.9 | O=C(Nc1ccc(CN2CCCC2)cc1)c1n[nH]cc1/C=C/c1cccnc1 | – | – | – | 194 | – | – | –
0.0191 | 0.021 | 0.08 | 0.09 | – | 0.01 | Fc1cccc(-c2ccnc3[nH]c(-c4n[nH]c5ccc(-c6cncc(CN7CCC(F)(F)C7)c6)cc45)nc23)c1 | – | – | 85.8 | – | – | – | –
1.17 | 0.004 | 0.091 | 0.074 | – | 0.01 | CN(C)Cc1cncc(-c2cnc3[nH]nc(-c4cc5c(-c6cccc(F)c6)nccc5[nH]4)c3c2)c1 | – | – | – | – | – | – | 110

EC50 [1] [µM] | EC50 [2] [µM] | EC50 [3] [µM] | EC50 [5] [µM] | EC50 [6] [µM] | EC50 [8] [µM] | SMILES | Emax at 0.3 µM [4] [%] | Imax [7] [%] | Emax at 0.03 µM [9] [%] | Emax at 2.7 µM [10] [%] | Emax at 0.1 µM [11] [%] | Activity (Chondrocyte) | Emax at 0.01 µM [12] [%]
1.08 | – | > 10 | > 10 | 0.0002 | – | O=C(Nc1cncc(-c2ccc3[nH]nc(-c4nc5c(-c6cccc(F)c6)cccc5[nH]4)c3n2)c1)C1CC1 | – | 70 | – | – | – | – | –
0.834 | 0.005 | 0.021 | 1.76 | – | 0.03 | Cc1n[nH]c2ccc(-c3cncc(O[C@H]4CCNC[C@H]4F)n3)cc12 | – | – | 54.2 | – | – | – | –
– | – | 0.011 | – | 0.0758 | – | CC(C)N1CCC(Oc2cc(C(=O)Nc3cc4cc(-c5cnn6c5CCNC6)ccc4cn3)ccn2)CC1 | – | – | – | – | – | inactive | –
0.011 | 0.017 | 0.012 | 0.045 | – | – | Oc1cncc(-c2ccc3[nH]nc(-c4nc5c(-c6cccc(F)c6)ccnc5[nH]4)c3c2)c1 | – | – | – | – | 52.2 | – | –
– | 0.004 | – | 0.066 | 0.0191 | – | Cn1cc(-c2ccc3cnc(NC(=O)c4cnc5ccccc5c4)cc3c2)cn1 | – | 41.2 | – | – | – | – | –
> 10 | 0.011 | 0.021 | > 10 | – | – | O=C(CC1CCNCC1)Nc1cncc(-c2cnc3[nH]nc(-c4cc5c(-c6ccncc6)ccnc5[nH]4)c3c2)c1 | – | – | 26.7 | – | – | – | –
0.226 | 0.001 | 0.003 | 0.081 | 3 | – | CN1CCN(c2ccc(NC(=O)c3n[nH]c4ccc(-c5cncc(NC(=O)c6c(F)cccc6F)c5)cc34)cn2)CC1 | – | 54.9 | – | – | – | – | –
1.21 | – | 0.019 | > 10 | 3 | – | COc1cncc(C#Cc2c[nH]nc2C(=O)Nc2ccc(OCCN3CCCC3)nc2)c1 | – | 2.4 | – | – | – | – | –
0.672 | 0.001 | 0.011 | 1.72 | – | 0.1 | Cc1n[nH]c2ccc(-c3cncc(O[C@H]4CCNC[C@@H]4F)n3)cc12 | – | – | – | – | 44.9 | – | –
0.119 | 0.024 | 0.027 | 3.7 | 0.811 | – | Cc1ccc(C(=O)Nc2c[nH]nc2C(=O)Nc2ccc(OCCN3CCCC3)nc2)cn1 | – | 23.7 | – | – | – | – | –
> 10 | > 10 | – | > 10 | 3 | – | CN1CCC(C(=O)Nc2cc3cc(-c4cnsc4)cnc3cn2)CC1 | – | – | – | – | – | – | –
0.445 | 0.001 | 0.005 | 0.052 | – | 0.01 | CCC(=O)Nc1cncc(-c2ccc3[nH]nc(-c4cc5c(N6CCCCC6)nccc5[nH]4)c3c2)c1 | – | – | 244 | – | – | – | –
0.0471 | – | – | – | 0.008 | 2.7 | CC(C)NC(=O)c1n[nH]c2ccc(-c3cncc(CN4CCC(F)(F)CC4)c3)cc12 | – | – | – | 104 | – | – | –
0.809 | 0.037 | 0.045 | 3.95 | 3 | – | Cc1n[nH]c2ccc(-c3cncc(N[C@H](CO)Cc4cccc(C(F)(F)F)c4)n3)cc12 | – | – | – | – | – | – | –
> 10 | – | > 10 | > 10 | 0.0051 | – | O=C(Nc1cncc(-c2ccc3[nH]nc(-c4nc5c(-c6ccccn6)ccnc5[nH]4)c3n2)c1)c1ccccc1 | – | 67 | – | – | – | – | –
> 10 | 0.032 | 0.021 | > 10 | 3 | – | O=C(Nc1ccc(N2CCC(F)(F)C2)nc1)c1n[nH]cc1C#Cc1cccnc1 | – | 88.5 | – | – | – | – | –
– | – | – | – | 3 | – | Cn1cncc1-c1ccc2cnc(NC(=O)c3ccc(F)cc3)cc2c1 | – | – | – | 24.9 | – | – | –
0.0615 | 0.003 | 0.008 | 0.021 | – | – | CCCC(=O)Nc1cncc(-c2cc3c(-c4nc5c(-c6ccsc6)cncc5[nH]4)n[nH]c3cn2)c1 | – | – | 42 | – | – | – | –
1.03 | 0.008 | 0.001 | 0.717 | 0.004 | – | O=C(N[C@H]1C[C@@H]1c1ccccc1)c1n[nH]c2ccc(-c3cncc(CN4CCCCC4)c3)cc12 | – | – | – | – | – | – | –
1.27 | 0.004 | 0.04 | 0.049 | – | – | CN(C)CCNc1cc(F)cc(-c2cccc3[nH]c(-c4n[nH]c5ccc(-c6cncc(CN7CCCCC7)c6)nc45)cc23)c1 | – | – | 48.5 | – | – | – | –

SMILES | EC50 [1] [µM] | EC50 [2] [µM] | EC50 [3] [µM] | EC50 [5] [µM] | EC50 [6] [µM] | EC50 [8] [µM] | Emax at 0.3 µM [4] [%] | Imax [7] [%] | Emax at 0.03 µM [9] [%] | Emax at 2.7 µM [10] [%] | Emax at 0.1 µM [11] [%] | Activity (Chondrocyte) | Emax at 0.01 µM [12] [%]
Cc1nnc(-c2ccc3cnc(NC(=O)c4ccnc(C5=CCN(C)CC5)c4)cc3c2)s1 | – | 0.002 | – | 0.014 | 0.143 | – | – | 35.3 | – | – | – | – | –
